Laboratory results from patent US6703370B1, “Use of ribose to treat fibromyalgia” (Bioenergy, Inc., priority 1999, dated 2004).

Columns and labels:
Type in all cases: in vivo, human
fibromyalgia patient = assay: Alleviation of symptoms in a fibromyalgia patient (single case, oral ribose)
Description: A patient diagnosed with fibromyalgia had been experiencing extreme muscle pain and fatigue as well as irritable bowel syndrome, disturbed sleep, and cognitive dysfunction. They had been told by their physician that they were in the worst stage of the condition and could end up in a wheel chair within a year. They began taking ribose, one teaspoonful (about 5 grams), 4 times per day. […] They continued taking it for a week then decided to observe the effects of stopping the doses of ribose, so they discontinued the protocol for one week. […] They stated that “It is without a doubt the best product I have ever been on.”

fibromyalgia subjects = assay: Pilot study on the effect of ribose in alleviating the symptoms of fibromyalgia (SF-36 health status profile and subject reports)
Description: Four women subjects ranging in age from 45 to 55 were given ribose and instructed to take at least 20 grams per day, preferably divided in four doses. The recommended mode of administration was one heaping teaspoon, about five to seven grams, mixed in six to eight ounces of water, taken preferably with meals and before planned activity. Subjects were encouraged to vary the dosage according to their perceived needs. Each subject was given a health status profile (SF-36) to complete. The profile was to be filled out both before and after four weeks of ribose administration. Two of the subjects complied with filling out the profile.
Health Status Profile (SF-36):
1) General health compared to one year ago: 1=much better, 2=somewhat better, 3=about the same, 4=somewhat worse, 5=much worse
2) Energy, 2 questions, from peppy all of the time to none of the time.
3) Activities, 12 examples from vigorous to mild, scored as: limited a lot, limited a little, not limited
4) Pain: 1=none, 2=very mild, 3=mild, 4=moderate, 5=severe, 6 =very severe The results of each subject's before and after ratings are summarized in Table I.

[1] = system: patients with fibromyalgia (FM); assay: Planned double-blind crossover study of oral ribose in fibromyalgia; details: 16 patients planned, 20 gm per day (10 gm bid), 4 weeks, crossover against dextrose placebo
Description: Following the informal studies in five subjects, a protocol was written to determine whether oral ribose administration in patients with fibromyalgia (FM) can reduce symptoms of fatigue and pain and improve the subjects' quality of life. The study endpoints will be: (1) the patient's visual analog (PVA) scale for pain, (2) the patient's analog scale for fatigue, (3) the physician's global assessment (GAphs), (4) the patient's global assessment (GAPT), (5) the Western Ontario MacMaster Questionaire (WOMAC) index, (6) SF-36 quality of life form, (7) the patient's's daily activity/events log and (8) the number of days to study discontinuation, if the patient chooses to do so, based upon his/her improved condition. The study will include 16 patients with a confirmed diagnosis of FM using a double-blind crossover design. All patients who meet entrance or screening criteria will be randomly assigned to either treatment #1 (oral dextrose as a placebo) or treatment #2 (oral ribose) at a dose of 20 gm per day (10 gm bid), as a first treatment modality. Both physician and patient will be blinded to the treatment modality. Informed consent will be obtained prior to enrolment. […] All endpoint parameters will be assessed at baseline prior to treatment, after 4 weeks of treatment one, at the end of the workout period, and again following 4 weeks of treatment 2 (“crossover” treatment modality). […]

fibromyalgia patients = assay: Applicants' general finding on steady ingestion of ribose; details: steady ingestion two to four times per day over the course of a week
Description: Continued ingestion leads to greater improvement, in turn allowing the patient to endure the much needed regular exercise to further relieve the painful symptoms.

[2] = after resuming, one teaspoonful 4 times per day, after 4 weeks

## O=C[C@H](O)[C@H](O)[C@H](O)CO [ribose, D-ribose]
Fibromyalgia patient; [2]
  Irritable painful bowel syndrome: improved their irritable painful bowel syndrome
  Pain, fatigue and morning stiffness: alleviated their pain, fatigue and morning stiffness
Fibromyalgia patient; patient, about 5 grams 4 times per day, first week
  Energy and flare ups of muscle soreness: more energy and fewer flare ups of muscle soreness
Fibromyalgia patient; patient, about 5 grams 4 times per day, oral
  Symptoms on starting ribose: immediate improvement in their symptoms
Fibromyalgia patient; protocol discontinued for one week
  Symptoms after discontinuing ribose: symptoms returned to their previous level
Fibromyalgia subjects; Subject #1, 45-54, fibromyalgia for 15 years, after four weeks of ribose, at least 20 grams per day, before: much worse, after cell wraps r10-r11: somewhat better
  General health compared to last year, after: somewhat
Fibromyalgia subjects; Subject #1, after four weeks of ribose, before: 8 of 12 limited a lot
  Activities (12 total) limited a lot, after: 1 of 12 limited a
Fibromyalgia subjects; Subject #1, after four weeks of ribose, before: little of the time, after cell wraps r11-r12: all of the time
  Energy, after: all of the
Fibromyalgia subjects; Subject #1, after four weeks of ribose, before: very severe
  Pain, after: moderate
Fibromyalgia subjects; Subject #2, 50-55, fibromyalgia for several years, after four weeks of ribose, before: somewhat better
  General health compared to last year, after: much better
Fibromyalgia subjects; Subject #2, after four weeks of ribose, before: 2 of 12 limited a lot
  Activities (12 total) limited, after: 0 of 12 limited
Fibromyalgia subjects; Subject #2, after four weeks of ribose, before: none of the time, after cell wraps r16-r17: some of the time
  Energy, after: some of the
Fibromyalgia subjects; Subject #2, after four weeks of ribose, before: severe
  Pain, after: moderate
Fibromyalgia subjects; Subject #3
  Energy: more energetic
  Energy after cessation of administration: next-day loss of energy
  Severe pain at the tender points: did not feel a decrease in severe pain at the tender points
Fibromyalgia subjects; Subject #3, compliant with protocol, no profile
  Fatigue level and achiness: improvement in their fatigue level and less achiness
Fibromyalgia subjects; Subject #4, did not follow the protocol
  Energy when ribose is taken on feeling exhausted: feel more energetic
Fibromyalgia subjects; Subjects #1 and #2, on suspending ribose
  Energy and aching after suspending ribose administration: drop in energy and increase in aching within a day
Fibromyalgia subjects; all subjects of the pilot study
  Overall relief from symptoms of fibromyalgia: all reported some alleviation
[1]
  Expected alleviation of achiness, fatigue and/or pain at the tender points: most of the patients will experience some alleviation of achiness, fatigue and/or pain at the tender points
Fibromyalgia patients
  Fatigue, achiness, pain, energy and irritable bowel syndrome: noticeable improvement in the level of fatigue, achiness, pain, and energy, and alleviation of irritable bowel syndrome
